Each compound was assayed on Acinetobacter baumannii ATCC17961 (assay: 90% Growth Inhibitory Concentration (IC90) determination, antimicrobial susceptibility testing). Details: Acinetobacter baumannii ATCC17961; Iso-Sensitest broth; growth by optical density at 600 nm over 16h; concentration inhibiting 90% of the growth; read-out: ATCC 17961 IC90.
Assay type: cell-based
Experimental: Antimicrobial Susceptibility Testing:
90% Growth Inhibitory Concentration (IC90) Determination
The in vitro antimicrobial activity of the compounds was determined according to the following procedure:
The assay used a 10-points Iso-Sensitest broth medium to measure quantitatively the in vitro activity of the compounds against Acinetobacter baumannii ATCC17961.
Stock compounds in DMSO were serially twofold diluted (e.g. range from 50 to 0.097 μM final concentration) in 384 wells microtiter plates and inoculated with 49 μl the bacterial suspension in Iso-Sensitest medium to have a final cell concentration of ~5×10^(5) CFU/ml in a final volume/well of 50 ul/well. Microtiter plates were incubated at 35±2° C.
Bacterial cell growth was determined with the measurement of optical density at λ=600 nm each 20 minutes over a time course of 16h. Growth inhibition was calculated during the logarithmic growth of the bacterial cells with determination of the concentration inhibiting 50% (IC50) and 90% (IC90) of the growth.
Table 1 provides the 90% growth inhibitory concentrations (IC90) in micromoles per liter of the compounds of present invention obtained against the strain Acinetobacter baumannii ATCC17961.

Row | Compound | IC90 [nM]
1 | Cn1c(-c2cn(-c3ccc(N)cn3)nc2C(F)(F)F)cnc1C(=O)Nc1ccc(C(=O)N[C@H]2C[C@@H](NC(=O)[C@@H]3C[C@@H](O)CN3)C2)c(Cl)c1 (stereo in doubt) [Example Z42, 5-[1-(5-amino-2-pyridyl)-3-(trifluoromethyl)pyrazol-4-yl]-N-[3-chloro-4-[cis-[3-[[(2S,4R)-4-hydroxyprolyl]amino]cyclobutyl]carbamoyl]phenyl]-1-methyl-imidazole-2-carboxamide] | 630

Same assay, conditions: Acinetobacter baumannii, ATCC17961, 16 h, Acinetobacter baumannii ATCC17961; Iso-Sensitest broth; growth by optical density at 600 nm over 16h; concentration inhibiting 90% of the growth; read-out: ATCC 17961 IC90

Row | Compound | IC90 [nM]
2 | Cn1c(-c2cn(-c3ccc(N)cn3)nc2C(F)(F)F)cnc1C(=O)Nc1ccc(C(=O)NCC2(NC(=O)[C@@H]3CC(O)CN3)CC2)c(Cl)c1 (stereo in doubt) [Example Z43, 5-[1-(5-amino-2-pyridyl)-3-(trifluoromethyl)pyrazol-4-yl]-N-[3-chloro-4-[[1-[[(2S,4R)-4-hydroxyprolyl]amino]cyclopropyl]methylcarbamoyl]phenyl]-1-methyl-imidazole-2-carboxamide] | 1220
3 | Cn1c(-c2cn(-c3ccncc3)nc2C(F)(F)F)cnc1C(=O)Nc1ccc(C(=O)N2CCN(C(=O)C3CCNCC3)CC2)c(Cl)c1 [Example A2, N-[3-chloro-4-[4-(piperidine-4-carbonyl)piperazine-1-carbonyl]phenyl]-1-methyl-5-[1-(4-pyridyl)-3-(trifluoromethyl)pyrazol-4-yl]imidazole-2-carboxamide] | 710
4 | Cn1c(-c2cn(-c3ccc(Cl)cn3)nc2C(F)(F)F)cnc1C(=O)Nc1ccc(C(=O)N2CCN(C(=O)C3CCNCC3)CC2)c(Cl)c1 [Example A3, N-[3-chloro-4-[4-(piperidine-4-carbonyl)piperazine-1-carbonyl]phenyl]-5-[1-(5-chloro-2-pyridyl)-3-(trifluoromethyl)pyrazol-4-yl]-1-methyl-imidazole-2-carboxamide] | 370
5 | Cn1c(-c2cn(-c3ncc(N)cn3)nc2C(F)(F)F)cnc1C(=O)Nc1ccc(C(=O)N2CCN(C(=O)C3CCNCC3)CC2)c(Cl)c1 [Example A5, 5-[1-(5-aminopyrimidin-2-yl)-3-(trifluoromethyl)pyrazol-4-yl]-N-[3-chloro-4-[4-(piperidine-4-carbonyl)piperazine-1-carbonyl]phenyl]-1-methyl-imidazole-2-carboxamide] | 1000
6 | COCCOc1cnc(-n2cc(-c3cnc(C(=O)Nc4ccc(C(=O)N5CCN(C(=O)C6CCNCC6)CC5)c(Cl)c4)n3C)c(C(F)(F)F)n2)nc1 [Example A6, N-[3-chloro-4-[4-(piperidine-4-carbonyl)piperazine-1-carbonyl]phenyl]-5-[1-[5-(2-methoxyethoxy)pyrimidin-2-yl]-3-(trifluoromethyl)pyrazol-4-yl]-1-methyl-imidazole-2-carboxamide] | 540
7 | Cn1c(-c2cn(-c3ncc(F)cn3)nc2C(F)(F)F)cnc1C(=O)Nc1ccc(C(=O)N2CCN(C(=O)C3CCNCC3)CC2)c(Cl)c1 [Example A8, N-[3-chloro-4-[4-(piperidine-4-carbonyl)piperazine-1-carbonyl]phenyl]-5-[1-(5-fluoropyrimidin-2-yl)-3-(trifluoromethyl)pyrazol-4-yl]-1-methyl-imidazole-2-carboxamide] | 910
8 | Cn1c(-c2cn(-c3ncc4cn[nH]c4n3)nc2C(F)(F)F)cnc1C(=O)Nc1ccc(C(=O)N2CCN(C(=O)C3CCNCC3)CC2)c(Cl)c1 [Example A9, N-[3-chloro-4-[4-(piperidine-4-carbonyl)piperazine-1-carbonyl]phenyl]-1-methyl-5-[1-(1h-pyrazolo[3,4-d]pyrimidin-6-yl)-3-(trifluoromethyl)pyrazol-4-yl]imidazole-2-carboxamide] | 510
9 | Cn1c(-c2cn(-c3ncccc3C(F)(F)F)nc2C(F)(F)F)cnc1C(=O)Nc1ccc(C(=O)N2CCN(C(=O)C3CCNCC3)CC2)c(Cl)c1 [Example A10, N-[3-chloro-4-[4-(piperidine-4-carbonyl)piperazine-1-carbonyl]phenyl]-1-methyl-5-[3-(trifluoromethyl)-1-[3-(trifluoromethyl)-2-pyridyl]pyrazol-4-yl]imidazole-2-carboxamide] | 830
10 | Cn1c(-c2cn(-c3ccccn3)nc2C(F)(F)F)cnc1C(=O)Nc1ccc(C(=O)N2CCN(C(=O)C3CCNCC3)CC2)c(Cl)c1 [Example A11, N-[3-chloro-4-[4-(piperidine-4-carbonyl)piperazine-1-carbonyl]phenyl]-1-methyl-5-[1-(2-pyridyl)-3-(trifluoromethyl)pyrazol-4-yl]imidazole-2-carboxamide] | 240
11 | COc1ccnc(-n2cc(-c3cnc(C(=O)Nc4ccc(C(=O)N5CCN(C(=O)C6CCNCC6)CC5)c(Cl)c4)n3C)c(C(F)(F)F)n2)c1 [Example A12, N-[3-chloro-4-[4-(piperidine-4-carbonyl)piperazine-1-carbonyl]phenyl]-5-[1-(4-methoxy-2-pyridyl)-3-(trifluoromethyl)pyrazol-4-yl]-1-methyl-imidazole-2-carboxamide] | 250
12 | COc1ccc(-n2cc(-c3cnc(C(=O)Nc4ccc(C(=O)N5CCN(C(=O)C6CCNCC6)CC5)c(Cl)c4)n3C)c(C(F)(F)F)n2)nc1 [Example A13, N-[3-chloro-4-[4-(piperidine-4-carbonyl)piperazine-1-carbonyl]phenyl]-5-[1-(5-methoxy-2-pyridyl)-3-(trifluoromethyl)pyrazol-4-yl]-1-methyl-imidazole-2-carboxamide] | 210
13 | Cn1c(-c2cn(-c3nccc(OCCN)n3)nc2C(F)(F)F)cnc1C(=O)Nc1ccc(C(=O)N2CCN(C(=O)C3CCNCC3)CC2)c(Cl)c1 [Example A14, 5-[1-[4-(2-aminoethoxy)pyrimidin-2-yl]-3-(trifluoromethyl)pyrazol-4-yl]-N-[3-chloro-4-[4-(piperidine-4-carbonyl)piperazine-1-carbonyl]phenyl]-1-methyl-imidazole-2-carboxamide] | 2200
14 | Cn1c(-c2cn(-c3nccc(N)n3)nc2C(F)(F)F)cnc1C(=O)Nc1ccc(C(=O)N2CCN(C(=O)C3CCNCC3)CC2)c(Cl)c1 [Example A15, 5-[1-(4-aminopyrimidin-2-yl)-3-(trifluoromethyl)pyrazol-4-yl]-N-[3-chloro-4-[4-(piperidine-4-carbonyl)piperazine-1-carbonyl]phenyl]-1-methyl-imidazole-2-carboxamide] | 590
15 | CNc1ccnc(-n2cc(-c3cnc(C(=O)Nc4ccc(C(=O)N5CCN(C(=O)C6CCNCC6)CC5)c(Cl)c4)n3C)c(C(F)(F)F)n2)n1 [Example A16, N-[3-chloro-4-[4-(piperidine-4-carbonyl)piperazine-1-carbonyl]phenyl]-1-methyl-5-[1-[4-(methylamino)pyrimidin-2-yl]-3-(trifluoromethyl)pyrazol-4-yl]imidazole-2-carboxamide] | 680
16 | CN(C)c1ccnc(-n2cc(-c3cnc(C(=O)Nc4ccc(C(=O)N5CCN(C(=O)C6CCNCC6)CC5)c(Cl)c4)n3C)c(C(F)(F)F)n2)n1 [Example A17, N-[3-chloro-4-[4-(piperidine-4-carbonyl)piperazine-1-carbonyl]phenyl]-5-[1-[4-(dimethylamino)pyrimidin-2-yl]-3-(trifluoromethyl)pyrazol-4-yl]-1-methyl-imidazole-2-carboxamide] | 500
17 | COCCNc1ccnc(-n2cc(-c3cnc(C(=O)Nc4ccc(C(=O)N5CCN(C(=O)C6CCNCC6)CC5)c(Cl)c4)n3C)c(C(F)(F)F)n2)n1 [Example A19, N-[3-chloro-4-[4-(piperidine-4-carbonyl)piperazine-1-carbonyl]phenyl]-5-[1-[4-(2-methoxyethylamino)pyrimidin-2-yl]-3-(trifluoromethyl)pyrazol-4-yl]-1-methyl-imidazole-2-carboxamide] | 1200
18 | Cn1c(-c2cn(-c3cnccn3)nc2C(F)(F)F)cnc1C(=O)Nc1ccc(C(=O)N2CCN(C(=O)C3CCNCC3)CC2)c(Cl)c1 [Example A20, N-[3-chloro-4-[4-(piperidine-4-carbonyl)piperazine-1-carbonyl]phenyl]-1-methyl-5-[1-pyrazin-2-yl-3-(trifluoromethyl)pyrazol-4-yl]imidazole-2-carboxamide] | 480
19 | Cn1c(-c2cn(-c3ncc(NCCN)cn3)nc2C(F)(F)F)cnc1C(=O)Nc1ccc(C(=O)N2CCN(C(=O)C3CCNCC3)CC2)c(Cl)c1 [Example B2, 5-[1-[5-(2-aminoethylamino)pyrimidin-2-yl]-3-(trifluoromethyl)pyrazol-4-yl]-N-[3-chloro-4-[4-(piperidine-4-carbonyl)piperazine-1-carbonyl]phenyl]-1-methyl-imidazole-2-carboxamide] | 170

Same assay, conditions: Acinetobacter baumannii, ATCC17961, 16 h, read-out: ATCC 17961 IC90

Row | Compound | IC90 [nM]
20 | Cn1c(-c2cn(-c3ncccn3)nc2C(F)(F)F)cnc1C(=O)Nc1ccc(C(=O)N2CCN(C(=O)C3CCNCC3)CC2)c(Cl)c1 [Example A1, N-[3-Chloro-4-[4-(piperidine-4-carbonyl)piperazine-1-carbonyl]phenyl]-1-methyl-5-[1-pyrimidin-2-yl-3-(trifluoromethyl)pyrazol-4-yl]imidazole-2-carboxamide] | 690
21 | CN(C)c1cnc(-n2cc(-c3cnc(C(=O)Nc4ccc(C(=O)N5CCN(C(=O)C6CCNCC6)CC5)c(Cl)c4)n3C)c(C(F)(F)F)n2)nc1 [Example B1, N-[3-Chloro-4-[4-(piperidine-4-carbonyl)piperazine-1-carbonyl]phenyl]-5-[1-[5-(dimethylamino)pyrimidin-2-yl]-3-(trifluoromethyl)pyrazol-4-yl]-1-methyl-imidazole-2-carboxamide] | 230

— US12679824B2 (Hoffmann-La Roche Inc., priority 2020, dated 2026)
